In patent US10072021B2, “Compound for inhibiting binding between DX2 protein and P14/ARF protein, and pharmaceutical composition for treating or preventing cancer disease containing same as effective ingredient” (PUSAN NATIONAL UNIVERSITY INDUSTRY-UNIVERSITY COOPERATION …, priority 2014, dated 2018):
“Also recorded” adds a separate entry of the source.

Assays:
DX2-p14/ARF interaction = molecular target: T1, DX2-p14/ARF interaction (Homo sapiens, UniProt Q13155); assay: Immunoprecipitation analysis of DX2-p14/ARF interaction in cotransfected 293 cells; format: cell-based; settings: MG132, SLCB050 10 μM, 6 hours, IP with Myc antibodies
T1 construct: expressed in transfected cells; host or cells: 293 (HEK293) cells
T1 sequence (Q13155 1-251 isoform Q13155-2): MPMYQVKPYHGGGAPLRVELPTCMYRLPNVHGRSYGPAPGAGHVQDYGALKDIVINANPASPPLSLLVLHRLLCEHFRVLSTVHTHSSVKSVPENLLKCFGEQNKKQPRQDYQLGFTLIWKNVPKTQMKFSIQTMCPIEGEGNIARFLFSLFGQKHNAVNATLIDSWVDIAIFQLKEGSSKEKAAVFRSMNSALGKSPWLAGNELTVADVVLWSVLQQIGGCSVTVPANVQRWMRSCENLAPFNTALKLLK
Procedure: Here, contransfected 293 cells were allowed to react with MG132 before immunoprecipitation analysis to prevent reduction of two proteins, and after performing SLCB050 treatment (10 μM, 6 hours), immunoprecipitation assay was performed on the cells by using Myc antibodies (DX2).
Here, 293 cells were transfected with indicating vectors for 24 hours and was allowed to react with MG132 and SLCB050 for 6 hours.
Immunoprecipitation (IP) assay was performed with cell lysate or recombinant protein with RIPA buffer. The whole lysates were incubated with suitable antibodies for 2 hours at a temperature of 4° C. for a reaction, and then, the mixtures were added with A/G-agarose beads-conjugated secondary antibody (Invitrogen, Carlsbad, Calif., USA) for 2 hours. After incubation for a reaction, the mixtures were washed using RIPA buffer twice, and precipitated proteins were determined by western blot analysis.

p53-AIMP2 or DX2 binding = assay: GST pull-down assay, selectivity: p53-AIMP2 or DX2 binding; settings: FIG. 3B
Description: (§1) Through GST pull-down assays, more specific binding inhibitors were selected among the previously screened candidate drugs as DX2-p14/ARF binding inhibitors. That is, a p14/ARF fragment (full-length) was ligated into EcoRI and Hind II sites of pGEX-TEV vector, which is a modified vector by adding a TEV protease cleavage site to pGEX-4T1. The recombinant proteins were then expressed in E. coli strain BL21(DE3) as GST-fusion proteins. The proteins were purified by glutathione affinity chromatography.
(§2) To address direct binding between the two proteins, agarose-bead conjugated GST (negative control) or GST-target protein was incubated with cell lysate or recombinant protein in radioimmunoprecipitation assay (RIPA) buffer (NaCl, 25 mM Tris-Cl, 1% NP-40, 1% sodium deoxycholate, 0.1% SDS, protease inhibitor mixture) for 1 hour at a temperature of 4° C. for a reaction.

p53-p14/ARF interaction = molecular target: T2, p53-p14/ARF interaction (Homo sapiens, UniProt P04637+Q8N726); assay: GST pull-down assay, selectivity: p53-p14/ARF interaction; format: binding; settings: FIG. 3D, 3E
T2 construct: a p14/ARF fragment (full-length) was ligated into EcoRI and Hind II sites of pGEX-TEV vector; made in house; host or cells: E. coli BL21(DE3) for GST-p14/ARF
Description: as §1, §2

DX2 and p14/ARF = assay: Localization and levels of DX2 and p14/ARF in cells after treatment (western blot); format: cell-based, human
[1] = test system: human lung cancer cell lines; assay: MTT viability of various human lung cancer cell lines; format: cell-based; settings: 24 hours, MTT assay, FIG. 5
Procedure: (§3) By MTT assay, anticancer effects were confirmed based on viability of tumor cells. That is, cells were incubated in 0.5 mg/ml of MTT solution for 4 hours at a temperature of 37° C. for a reaction, and then, formazen products formed therefrom were dissolved in dimethyl sulfoxide (DMSO). Then, absorbance thereof was measured at 540 nm by using a spectrometer.

[2] = test system: H128 cells (SCLC cell line); assay: Soft agar colony formation assay in H128 cells; format: cell-based, human; settings: 48 hours, trypan blue staining, FIG. 6
Procedure: H128 cells which are SCLC cell lines were seeded in soft agar plates and allowed to react with SLCB050 for 48 hours, and then, the cells were examined after staining the cells with trypan blue.

[3] = test system: DX2 and DK MEFs; primary tumor cells from DX2 and DK mice; assay: Reduction of anticancer drug resistance in DX2 and DK MEFs or primary tumor cells (MTT); format: cell-based, mouse
Procedure: as §3

H69 and H322 cells = assay: Sensitivity of lung cancer cell lines to combinational treatment with Adriamycin and SLCB050; format: cell-based, human; settings: combinational treatment with Adriamycin, FIG. 8C
Procedure: as §3

H446 xenograft = test system: H446 xenograft
Procedure: DK (5 month-old, N=6) mice were administered with carrier, SLCB050 (5 or 10 mg/kg), Adriamycin (1, 2.5, or 5 mg/kg), and a combination of SLCB050 and Adriamycin by intraperitoneal (i.p.) injection. After termination of the experiment of each group, mice were dissected and isolated lung tissues. For xenograft, 1×10^7 H446 cells (ATCC) were seeded in nude ice. After 4 weeks, tumor bearing mice were injected with Adriamycin, […], or a combination thereof for 6 weeks. Every weeks, tumor volume and body weight were measured.

p53 = p53 induction in primary tumor cells (western blotting); format: cell-based; settings: combinational treatment with Adriamycin and SLCB050, primary tumor cells from DX2 or DK mouse, FIG. 9C
Procedure: To carry out western blot analysis, proteins were thermally inactivated in RIPA buffer (heat treatment for 7 minutes at a temperature of 95° C.), and then, the resulting proteins were applied to SDS-PAGE, followed by western blot analysis according to a known method in the art (J. Clin. Oncol. 16, 1207-1217, 1998; Nat. Rev. Cancer 2, 489-501, 2002). Antibodies used herein, e.g., HA (sc-7392), His (sc-8036), GFP (sc-9996), GST (sc-138), Actin (se-1616), and p19/ARF (sc-32748), were purchased from Santa Cruz Biochnology, anti-p14/ARF (MAB3782) was purchased from Millipore, and FLAG-M2 and anti-C-Myc (M5546) were purchased from Sigma Aldrich. In addition, anti-AIMP2 was provided from Professor. Kim, Sung-Hoon (Seoul Nat. Univ.).

T2 sequence (Q8N726 whole entry, the tested form may be a part): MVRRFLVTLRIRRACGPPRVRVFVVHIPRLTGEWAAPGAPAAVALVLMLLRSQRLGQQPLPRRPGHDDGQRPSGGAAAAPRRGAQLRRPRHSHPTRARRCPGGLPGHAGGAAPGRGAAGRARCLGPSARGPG
T2 sequence (P04637 whole entry, the tested form may be a part): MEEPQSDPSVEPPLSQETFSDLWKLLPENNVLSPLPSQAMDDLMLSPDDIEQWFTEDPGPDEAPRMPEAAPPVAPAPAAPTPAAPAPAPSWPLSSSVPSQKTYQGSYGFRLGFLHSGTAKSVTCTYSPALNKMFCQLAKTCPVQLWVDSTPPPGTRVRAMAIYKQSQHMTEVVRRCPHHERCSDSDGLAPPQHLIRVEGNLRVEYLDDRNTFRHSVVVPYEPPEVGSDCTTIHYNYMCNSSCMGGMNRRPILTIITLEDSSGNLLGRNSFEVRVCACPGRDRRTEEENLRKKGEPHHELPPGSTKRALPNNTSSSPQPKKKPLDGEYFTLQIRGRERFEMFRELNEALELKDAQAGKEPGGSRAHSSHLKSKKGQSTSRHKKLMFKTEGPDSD

SMILES: CC1(C)Oc2cc3oc(=O)ccc3cc2C[C@@H]1OC(=O)/C=C/c1ccco1 [SLCB050, (7S)-(+)-3-(2-Furanyl)-acrylic acid, 8,8-dimethyl-2-oxo-6,7-dihydro-2H,8H-pyrano[3,2-g]chromen-7-yl-ester]
- interaction of p14/ARF with DX2 in cells (DX2-p14/ARF interaction): inhibited the interaction of p14/ARF with DX2 in cells
- inhibition of p53-AIMP2 or DX2 binding (p53-AIMP2 or DX2 binding): not on p53-AIMP2 or DX2 binding
- effect on interaction of p53-p14/ARF (p53-p14/ARF interaction): did not affect the interaction of p53-p14/ARF
- localization of DX2 and p14/ARF (DX2 and p14/ARF; 10 μM, 6 hours, nucleoplasm, FIG. 4B): DX2 was decreased and p14/ARF was increased in the nucleoplasm
- DX2 and p14/ARF levels (DX2 and p14/ARF; NSCLC cell line H1299 and SCLC cell line H69, FIG. 4C): decreases DX2, but increases p14/ARF
- DX2 levels in p14/ARF-deficient cells (DX2 and p14/ARF; p14/ARF-deficient H322 cells (H322, H460, A549), FIG. 4D): reduction of DX2; also recorded: DX2 levels decreased considerably
- viability of SCLC cells [1]: very sensitive
- viability of p14/ARF-deficient cell lines [1]: resistant
- number of colonies / H128 cell growth in soft agar [2]: completely suppressed the H128 cell growth; also recorded: reduced the number of colonies in a dose-dependent manner
- resistance to Adriamycin in primary tumor cells from DX2 and DK mice ([3]; Adriamycin 0.2 μg/ml with SLCB050 10 μM, 24 hours, FIG. 8B): resistance to Adriamycin was also abolished
- resistance to GN25 in DX2 and DK MEFs ([3]; GN25 5 μM with SLCB050 10 or 20 μM, 6 hours, FIG. 8A): resistance to GN25 in DX2 and DK cells was abolished
- sensitivity to Adriamycin in SCLC cell line H69 (H69 and H322 cells): sensitivity to Adriamycin improved
- sensitivity to Adriamycin in p14/ARF-deficient H322 cells (H69 and H322 cells): did not show improved sensitivity
- tumor growth, combination (H446 xenograft; SLCB050 10 mg/kg with low dose Adriamycin 2.5 mg/kg, FIG. 9B): more obvious anticancer effect; also recorded: obviously suppressed tumor growth
- tumor volume, SLCB050 alone (H446 xenograft; SLCB050 10 mg/kg, three times/week, FIG. 9B): moderately suppressed
- response of H446 xenograft model (H446 xenograft; single agents, FIG. 9A): partially responded
- p53 induction in primary tumor cells (p53): induced p53 synergistically
